For this experiment, the target named is 15-PGDH (Homo sapiens (Human), UniProt P15428). Kind of experiment: Detection of activity of 15-PGDH enzyme. The class given is biochemical. The settings on record: inhibitory activity against 15-PGDH enzyme; substrates β-NAD and PGF2α; fluorescence Ex/Em=340/450. The protocol:
• a. A solution of pH 7.5 containing 50 mM Tris-HCl, 0.01% Tween 20 was prepared with ultrapure water as a reaction buffer; • b. A 10 mM mother liquor of the compound to be tested was prepared with DMSO, and then the reaction buffer was used to dilute the mother liquor of the compound to be tested to obtain solution 1 of the compound to be tested at a concentration of 40,000 nM, and then the solution 1 of the compound to be tested was serially diluted into solutions 2-9 (or 2-12) of the compound to be tested at 9 (or 11) concentrations with a gradient difference of three-fold. 5 μL of each concentration of solutions of the compound to be tested was respectively taken and added into a 384-well plate as test wells; • c. 5 μL of the reaction buffer was then added to the blank wells of the 384-well plate as positive control and blank control wells, respectively; • d. The reaction buffer was used to prepare a 15-PGDH protein solution at a concentration of 5 ng/μL, 5 μL of the 15-PGDH protein solution was taken and added to the test wells and positive control wells, and meanwhile 5 μL of the reaction buffer was added to the blank control wells, then the plate was centrifuged at 2000 rpm for 30 seconds; • e. The reaction buffer was used to prepare 5 mM $3-NAD and 2 mM PGF2α, respectively, which were mixed at 1:1 by volume to obtain a substrate mixture, 10 μL of the substrate mixture was taken and added to the test wells, positive control wells and blank control wells to start the reaction; • f. The fluorescence signal value (Ex/Em=340/450) of each well was detected continuously by using a multifunctional microplate reader.
• a) Continuous fluorescence signal values were analyzed by using the “kinetic calculations-slope calculation method” in the PHERAstar Data analysis software to obtain the slope of each test well; • b) The inhibition rate % was calculated by using the following formula: inhibition rate %=[1−(slope of test well-signal value of positive control well)/(signal value of blank control well-average signal value of positive control well)]×100%. • c) Calculation of IC50 and plotting of inhibition rate-dose curves: IC50 values were calculated by fitting compound concentrations and corresponding inhibition rates with a nonlinear regression (dose response-variable slope) via using GraphPad Prism 6.0. The formula was shown below:
Y=Bottom+(Top−Bottom)/(1+10^((Log IC50−X)*HillSlope)), wherein X is a log value of a concentration of the compound, and Y is inhibition rate %.
15-PGDH, sequence (P15428 whole entry): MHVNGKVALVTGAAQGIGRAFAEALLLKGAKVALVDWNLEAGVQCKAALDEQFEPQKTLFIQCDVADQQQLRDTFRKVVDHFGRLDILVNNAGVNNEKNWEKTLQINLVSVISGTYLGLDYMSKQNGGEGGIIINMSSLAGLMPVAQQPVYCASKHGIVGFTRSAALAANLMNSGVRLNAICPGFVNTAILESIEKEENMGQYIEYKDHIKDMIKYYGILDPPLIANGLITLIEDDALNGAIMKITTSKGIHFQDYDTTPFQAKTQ
`Nc1cc(-c2cnc3c(C(F)(F)F)c(C(=O)N4CCCCC4)sc3n2)ccn1` [Example 83] displayed a 50% inhibitory concentration (IC50) of 3 to 10 nM.

For `COc1cc(-c2cnc3c(C(F)(F)F)c(C(=O)N4CCCCC4)sc3n2)ccn1` [Example 85], the IC50 was in the range of 3 to 10 nM. The figure for `O=C(c1sc2nc(-c3cncs3)cnc2c1C(F)(F)F)N1CCCCC1` [Example 86] is 3 to 10 nM; for `Cc1cc(-c2cnc3c(C(F)(F)F)c(C(=O)N4CCCCC4)sc3n2)ccn1` [Example 87] it is below 3 nM. The molecule `CN(C)c1ncc(-c2cnc3c(C(F)(F)F)c(C(=O)N4CCCCC4)sc3n2)cn1` [Example 88] came in with an IC50 of 10 to 20 nM. `O=C(c1sc2nc(-c3cnc(N4CCOCC4)nc3)cnc2c1C(F)(F)F)N1CCCCC1` [Example 89]: the IC50 lay in the range of 10 to 20 nM. `O=C(c1sc2nc(-c3cncnc3)cnc2c1C(F)(F)F)N1CCCCC1` [Example 91] registered an IC50 of 3 to 10 nM. To `CN1Cc2cc(-c3cnc4c(C(F)(F)F)c(C(=O)N5CCCCC5)sc4n3)ccc2C1=O` [Example 94] belongs 3 to 10 nM. To `COc1c(C(=O)N2CCCCC2)sc2nc(-c3ccccc3)cnc12` [Example 95] belongs 3 to 10 nM. With `Cc1c(C(=O)N2CCCCC2)sc2nc(-c3ccccc3)cnc12` [Example 96], the 50% inhibitory concentration (IC50) fell in the range of 10 to 20 nM.

On to `CCc1c(C(=O)N2CCCCC2)sc2nc(-c3ccccc3)cnc12` [Example 97], for which the IC50 was 3 to 10 nM. As to `O=C(c1sc2nc(-c3ccccc3)cnc2c1Br)N1CCCCC1` [Example 98], the IC50 was below 3 nM. `CC(C)c1c(C(=O)N2CCCCC2)sc2nc(-c3ccccc3)cnc12` [Example 99]: the half-maximal inhibitory concentration (IC50) lay within 10 to 20 nM. Turning to `O=C(c1cc2ncc(-c3ccccc3)nc2s1)N1CCCCC1` [Example 100], the IC50 lay in the range of 10 to 20 nM. To `O=C(c1sc2nc(-c3ccccc3)cnc2c1O)N1CCCCC1` [Example 101] belongs 50 to 100 nM.

As usually defined, the IC50 is the concentration that inhibits the measured activity by half.
